From patent US20230374034A1, “NOVEL BICYCLIC COMPOUNDS” (PRISM BIOLAB CO., LTD., priority 2020, published 2023) come the findings set out here.

One test relates to NICD (Notch intracellular domain) CSL-bla reporter in HeLa cells. As to the kind of experiment: Notch assay (CellSensor T-REx NICD CSL-bla HeLa beta-lactamase reporter; Method 1 / Method 2). It is filed as cell-based. The following applies: Homo sapiens, 10 μM compound, Method 1 (10× compound prepared in assay medium, added to plated cells), read-out: inhibiton (%) at 10 μM. From the text:
We used the CellSensor T-REx™ NICD CSL-bla HeLa cell line, which was engineered by lentiviral transduction of HeLa cells with a Notch response element driving beta-lactamase reporter gene expression (CSL-bla) along with DOX (doxycycline)-inducible NICD (Notch intracellular domain) constructs. Addition of DOX to these cells allows for regulated NICD transcription factor expression and subsequent beta-lactamase expression.
Specifically, the following protocol was used.
NOTCH ASSAY PROTOCOL (Method 2)
• 1. Add 40 nL/well of working concentration of 1000× compound to 384-well assay plate with Echo. • 2. Plate Cells: 35 μl/well of HeLa/T-REx™ NICD CSL-bla cells at 10^3 cells/well complete medium into 384-well plate. • 3. Add 5 μl 8× Doxycycline in Assay Medium to the treated wells, and 5 μl Assay Medium to the Untreated and cell free control wells. • 4. Incubate the assay plate in a humidified 37° C./5% CO2 incubator for 16-20 hours. • 5. Preparation of 6× LiveBLAzer™-FRET B/G Substrate (CCF4-AM) Mixture according to the manual and cell loading should be done in the absence of direct strong lighting. • 6. Remove assay plate from the humidified 37° C./5% CO2 incubator. Add 8 μl of 6× Substrate Mixture from Step 5 to each well. Cover the plate to protect it from light and evaporation. Incubate at room temperature for 4 hours. • 7. Reading an Assay Plate using the following filter selections:
• 8. Data analysis: Use the assay plate layout to identify the location of the Cell-free wells. These control wells are used for background subtraction. Determine the average emission from the Cell-free wells at both 460 nm (Average Blue Background) and 530 nm(Average Green Background). Subtract the Average Blue Background (data collected at 460 nm) from all of the blue emission data. Subtract the Average Green background (data collected at 530 nm) from all of the green emission data. Calculate the Blue/Green Emission Ratio for each well, by dividing the background-subtracted blue emission values by the background-subtracted green emission values.
Instead of Step 1 to Step 3, the following Step a to Step d can also be performed. The subsequent steps are the same as Method 2, after Step 4 (Method 1). • a. Plate Cells: 32 μL/well of HeLa/T-REx™ NICD CSL-bla cells at 10^3 cells/well complete medium into 384-well plate. • b. Prepare 10× compounds in assay medium. • c. Add 4 μL compounds or 1% DMSO in assay medium to the cells. • d. Add 4 μL 10×Doxycycline in Assay Medium to the treated wells, and 4 μL Assay Medium to the Untreated and cell free control wells.
The results are shown in Table 13 (Table 13-1 to Table 13-2).
Turning to `CCCC[C@H]1C(=O)N(CCC(N)=O)CC2N(C(=O)OCc3cccc4ccccc34)O[C@@H](Cc3ccccc3)C(=O)N21` (stereo partly drawn) [Compound I-25, (3S,6S)-naphthalen-1-ylmethyl 8-(3-amino-3-oxopropyl)-3-benzyl-6-butyl-4,7-dioxohexahydropyrazino[2,1-c][1,2,4]oxadiazine-1(6H)-carboxylate], the inhibition at 10 µM worked out at 70.3%.

For the molecule `CC(C)CCN1CC2N(C(=O)OCc3cccc4ccccc34)O[C@H](CC(N)=O)C(=O)N2[C@@H](Cc2ccccc2)C1=O` (stereo partly drawn) [Compound I-21, (3R,6S)-naphthalen-1-ylmethyl 3-(2-amino-2-oxoethyl)-6-benzyl-8-isopentyl-4,7-dioxohexahydropyrazino[2,1-c][1,2,4]oxadiazine-1(6H)-carboxylate], the inhibition at 10 µM came to 60%.

For `CCCCCCOC(=O)N1O[C@@H](C(C)C)C(=O)N2C1CN(Cc1ccccc1)C(=O)[C@@H]2Cc1ccc(O)cc1` (stereo partly drawn) [Compound I-3, (3S,6S)-hexyl 8-benzyl-6-(4-hydroxybenzyl)-3-isopropyl-4,7-dioxohexahydropyrazino[2,1-c][1,2,4]oxadiazine-1(6H)-carboxylate], the inhibition at 10 µM is 53.6%. Still for that read-out and setting: with `CC(C)CCN1CC2N(C(=O)OCc3cccc4ccccc34)O[C@H](C(C)C)C(=O)N2[C@@H](Cc2ccc(O)cc2)C1=O` (stereo partly drawn) [Compound I-9, (3R,6S)-naphthalen-1-ylmethyl 6-(4-hydroxybenzyl)-8-isopentyl-3-isopropyl-4,7-dioxohexahydropyrazino[2,1-c][1,2,4]oxadiazine-1(6H)-carboxylate] the figure was 70%; with `CC(C)C[C@H]1ON(C(=O)OCc2cccc3ccccc23)C2CN(C(C)C)C(=O)[C@H](Cc3ccc(O)cc3)N2C1=O` (stereo partly drawn) [Compound I-14, (3R,6S)-naphthalen-1-ylmethyl 6-(4-hydroxybenzyl)-3-isobutyl-8-isopropyl-4,7-dioxohexahydropyrazino[2,1-c][1,2,4]oxadiazine-1(6H)-carboxylate], 64.8%.

The test is the same for the next values; noted with them: Homo sapiens, 10 μM compound, Method 2 (40 nL of 1000× compound added to plate with Echo), read-out: inhibiton (%) at 10 μM.
As for `CC(C)C[C@H]1C(=O)N(C2CCN(C)CC2)CC2N(CCCc3ccccc3)O[C@H](CC3CCCCC3)C(=O)N21` (stereo partly drawn) [Compound I-141, (3R,6S)-3-(cyclohexylmethyl)-6-isobutyl-8-(1-methylpiperidin-4-yl)-1-(3-phenylpropyl) tetrahydropyrazino [2,1-c][1,2,4]oxadiazine-4,7(3H,6H)-dione], the inhibition at 10 µM amounted to 83.1%. Same read-out and setting: with `CCCC[C@@H](C(=O)NCCc1ccccc1)N1CC2N(C(=O)OCCc3ccc(O)cc3)O[C@H](Cc3ccc(O)cc3)C(=O)N2[C@@H](Cc2ccc(O)cc2)C1=O` (stereo partly drawn) [Compound I-119, 4-hydroxyphenethyl (3R,6S)-3,6-bis(4-hydroxybenzyl)-4,7-dioxo-8-((S)-1-oxo-1-(phenethylamino)hexan-2-yl)hexahydropyrazino[2,1-c][1,2,4]oxadiazine-1(6H)-carboxylate] the figure was 55.7%; with `CC(C)C[C@H]1ON(CCCC2CCN(S(=O)(=O)c3cccnc3)CC2)C2CN(C3CCN(C)CC3)C(=O)[C@H](CC(C)C)N2C1=O` (stereo partly drawn) [Compound I-150, (3R,6S)-3,6-diisobutyl-8-(1-methylpiperidin-4-yl)-1-(3-(1-(pyridin-3-ylsulfonyl)piperidin-4-yl)propyl)tetrahydropyrazino [2,1-c][1,2,4]oxadiazine-4,7(3H,6H)-dione], 69.1%; with `CC(C)CCOC(=O)N1O[C@H](Cc2ccc(O)cc2)C(=O)N2C1CN([C@@H](CC(C)C)C(=O)NCCc1ccccc1)C(=O)[C@@H]2Cc1ccc(O)cc1` (stereo partly drawn) [Compound I-114, isopentyl (3R,6S)-3,6-bis(4-hydroxybenzyl)-8-((S)-4-methyl-1-oxo-1-(phenethylamino)pentan-2-yl)-4,7-dioxohexahydropyrazino[2,1-c][1,2,4]oxadiazine-1(6H)-carboxylate], 56.3%. On the same count and under the same terms, with `CCCCOC(=O)N1O[C@H](CC2CCCCC2)C(=O)N2C1CN(CCC(C)C)C(=O)[C@@H]2CCCCN` (stereo partly drawn) [Compound I-35, (3R,6S)-butyl 6-(4-aminobutyl)-3-(cyclohexylmethyl)-8-isopentyl-4,7-dioxohexahydropyrazino[2,1-c][1,2,4]oxadiazine-1(6H)-carboxylate] the figure was 54%; with `CC(C)CCOC(=O)N1O[C@H](Cc2ccccc2)C(=O)N2C1CN([C@@H](Cc1ccccc1)C(=O)NCCCO)C(=O)[C@@H]2Cc1ccc(O)cc1` (stereo partly drawn) [Compound I-106, isopentyl (3R,6S)-3-benzyl-6-(4-hydroxybenzyl)-8-((S)-1-((3-hydroxypropyl)amino)-1-oxo-3-phenylpropan-2-yl)-4,7-dioxohexahydropyrazino[2,1-c][1,2,4]oxadiazine-1(6H)-carboxylate], 52%; with `CC(C)C[C@H]1ON(CCCC2CCN(S(=O)(=O)c3ccc(C#N)cc3)CC2)C2CN(C3CCN(C)CC3)C(=O)[C@H](CC(C)C)N2C1=O` (stereo partly drawn) [Compound I-152, 4-((4-(3-((3R,6S)-3,6-diisobutyl-8-(1-methylpiperidin-4-yl)-4,7-dioxohexahydro-pyrazino[2,1-c][1,2,4]oxadiazin-1(6H)-yl)propyl)piperidin-1-yl)sulfonyl)benzonitrile], 93.5%.

Regarding `CC(C)C[C@H]1ON(CCCC2CCN(C(=O)c3ccc(C(=O)c4ccccc4)cc3)CC2)C2CN(C3CCN(C)CC3)C(=O)[C@H](CC(C)C)N2C1=O` (stereo partly drawn) [Compound I-148, (3R,6S)-1-(3-(1-(4-benzoylbenzoyl)piperidin-4-yl)propyl)-3,6-diisobutyl-8-(1-methylpiperidin-4-yl)tetrahydropyrazino[2,1-c][1,2,4]oxadiazine-4,7(3H,6H)-dione], the inhibition at 10 µM is 76.6%.

Turning to `CC(C)OC(=O)N1O[C@H](CC2CCCCC2)C(=O)N2C1CN(CCc1ccccc1)C(=O)[C@@H]2CCCCN` (stereo partly drawn) [Compound I-37, (3R,6S)-isopropyl 6-(4-aminobutyl)-3-(cyclohexylmethyl)-4,7-dioxo-8-phenethylhexahydropyrazino [2,1-c][1,2,4]oxadiazine-1(6H)-carboxylate], the inhibition at 10 µM was determined as 87.3%. Still for that read-out and setting: the result for `CCCCCN1CC2N(C(=O)OCC(C)C)O[C@H](CC3CCCCC3)C(=O)N2[C@@H](CCCCN)C1=O` (stereo partly drawn) [Compound I-34, (3R,6S)-isobutyl 6-(4-aminobutyl)-3-(cyclohexylmethyl)-4,7-dioxo-8-pentylhexahydropyrazino [2,1-c][1,2,4]oxadiazine-1(6H)-carboxylate] reads 120%; that for `CC(C)C[C@H]1ON(C(=O)OCC2CCCCC2)C2CN(C3CCNCC3)C(=O)[C@H](CC(C)C)N2C1=O` (stereo partly drawn) [Compound I-135, cyclohexylmethyl (3R,6S)-3,6-diisobutyl-4,7-dioxo-8-(piperidin-4-yl)hexahydropyrazino[2,1-c][1,2,4]oxadiazine-1(6H)-carboxylate], 110%.

`CC(C)C[C@H]1ON(CCCc2ccccc2)C2CN(C3CCN(C)CC3)C(=O)[C@H](CC3CCCCC3)N2C1=O` (stereo partly drawn) [Compound I-143, (3R,6S)-6-(cyclohexylmethyl)-3-isobutyl-8-(1-methylpiperidin-4-yl)-1-(3-phenylpropyl) tetrahydropyrazino [2,1-c][1,2,4]oxadiazine-4,7(3H,6H)-dione]: the inhibition at 10 µM came to 105%. Same read-out and setting: with `CCCCCOC(=O)N1O[C@H](CC(C)C)C(=O)N2C1CN([C@@H](Cc1ccccc1)C(=O)NCCC(C)C)C(=O)[C@@H]2Cc1ccc(O)cc1` (stereo partly drawn) [Compound I-92, pentyl (3R,6S)-6-(4-hydroxybenzyl)-3-isobutyl-8-((S)-1-(isopentylamino)-1-oxo-3-phenylpropan-2-yl)-4,7-dioxohexahydropyrazino[2,1-c][1,2,4]oxadiazine-1(6H)-carboxylate] the figure was 50.1%; with `CCCCCC[C@H]1C(=O)N(C2CCN(C)CC2)C[C@@H]2N(CCCc3ccccc3)O[C@H](CC(C)C)C(=O)N21` [Compound I-142, (3R,6S,9aS)-6-hexyl-3-isobutyl-8-(1-methylpiperidin-4-yl)-1-(3-phenylpropyl) tetrahydropyrazino [2,1-c][1,2,4]oxadiazine-4,7(3H,6H)-dione], 113%.
